Data taken from article PMC6540907, “The nuclear export inhibitor aminoratjadone is a potent effector in extracellular-targeted drug conjugates” (Chemical Science, 2019).
“And” between values parts separate entries of the source, which are not always exact repeats. Identical values can stand only once. Like-named read-outs stand apart in the source and are kept apart here.

Columns and labels:
[1] = system: L-929; assay: Cell proliferation assay (MTT, 5 days); assay type: cell-based, murine
Description: (§1) Biological evaluation of the compounds […]
(§2) serial dilutions of the test compound were given to 120 µL of suspended cells (50.000/mL) in wells of 96-well plates. After 5 days of incubation growth inhibition (IC50) was determined using an MTT assay.9
(§3) Table S1:Medium conditions for different cell types.
(§4) Cell type Medium Additives
(§5) L-929 (DSMZ ACC 2) DME medium (high glucose) (Gibco) 10% fetal calf serum (Gibco) SKOV-3 DSMZ ATCC HTB Mc Coys-Medium (Gibco) 10% fetal calf serum (Gibco) […]
A549 (DSMZ ACC 107) DME medium (high glucose) (Gibco) 10% fetal calf serum (Gibco) KB 3.1 (DSMZ ACC 158) DME medium (high glucose) (Gibco) 10% fetal calf serum (Gibco) Ratjadone Compound Antiproliferative activity IC50 [nM]
KB-3.1: human cervix carcinoma, KB-V1: multi-drug-resistant human cervix carcinoma, K-562: human chronic myelogenous leukemia cell, PC-3: human prostate carcinoma, L-929: murine fibroblast
Figure S8: Structures of Ratjadone A-D and their antiproliferative activity (IC50 values in nM). Data published by Köster et al.10

[2] = system: KB-3.1; assay: cells; assay type: cell-based, human
Description: as §1, §2, §3, §4, §5
(§6) A549 (DSMZ ACC 107) DME medium (high glucose) (Gibco) 10% fetal calf serum (Gibco)

[3] = target: CRM1 (Homo sapiens, UniProt O14980); assay: Nuclear export inhibition, fluorescent translocation biosensor in recombinant HeLa cells; assay type: cell-based; design: This cellular assay uses HeLa cells that express a recombinant fusion protein; endogenous in cells; host or cells: HeLa cells stably expressing the NLS-GST-GFP-RevNES translocation biosensor (HeLaRevBio); details: nuclear export inhibition IC50, HeLa cells expressing translocation biosensor, 1 h incubation
[4] = system: SK-OV-3; assay: cells; assay type: cell-based, human; details: Homo sapiens, SK-OV-3, read-out: Antiproliferative activity IC50
Description: as §1, §2, §3, §4, §5, §6

[5] = system: MCF-7; assay: cells; assay type: cell-based, human
Description: as §1, §2, §3, §4, §5, §6

[6] = system: A-549; assay: cells; assay type: cell-based, human
Description: as §1, §2, §3, §4, §5, §6

[7] = system: KB-3.1 cancer cells; assay: Cell proliferation assay under folate free conditions (MTT); assay type: cell-based, human; details: KB-3.1, folate receptor-positive, read-out: Antiproliferative activity IC50 of folate-ratjadone conjugates
Description: Cell proliferation assay under folate free conditions
KB 3.1 (DSMZ ACC 158) cells were cultivated at 37 °C and 10 % CO2 in RMPI-medium without folic acid (Gibco) with 10% fetal calf serum (Gibco). 120 µL of suspended cells (100.000/mL) were seeded in wells of 96-well plates and after 24 h at 37 °C and 10 % CO2 the medium was removed, the cells were washed with PBS and RPMI-medium without folic acid (Gibco) + 10% dialyzed fetal calf serum (Sigma) were added to the cells, before after additional 24 h at 37°C and 10 % CO2 60 µL of serial dilutions of the test compound were given to cells. After 1, 2 and 5 days of incubation growth inhibition (IC50) was determined using an […]

[8] = L-929 murine fibroblast, read-out: Antiproliferative activity IC50
[9] = Mus musculus, L929, L-929 murine fibroblast, read-out: Antiproliferative activity IC50
[10] = KB 3-1, KB-3.1 human cervix carcinoma, read-out: Antiproliferative activity IC50
[11] = Mus musculus, L929, read-out: Antiproliferative activity IC50, L-929 murine fibroblast
[12] = Homo sapiens, KB 3-1, read-out: Antiproliferative activity IC50, KB-3.1 human cervix carcinoma
[13] = Homo sapiens, MCF7, read-out: Antiproliferative activity IC50, MCF-7 human breast carcinoma
[14] = Homo sapiens, A549, read-out: Antiproliferative activity IC50, A-549 human lung carcinoma
[15] = read-out: Antiproliferative activity IC50, L-929 murine fibroblast

CRM1, sequence (O14980 whole entry, the tested form may be a part): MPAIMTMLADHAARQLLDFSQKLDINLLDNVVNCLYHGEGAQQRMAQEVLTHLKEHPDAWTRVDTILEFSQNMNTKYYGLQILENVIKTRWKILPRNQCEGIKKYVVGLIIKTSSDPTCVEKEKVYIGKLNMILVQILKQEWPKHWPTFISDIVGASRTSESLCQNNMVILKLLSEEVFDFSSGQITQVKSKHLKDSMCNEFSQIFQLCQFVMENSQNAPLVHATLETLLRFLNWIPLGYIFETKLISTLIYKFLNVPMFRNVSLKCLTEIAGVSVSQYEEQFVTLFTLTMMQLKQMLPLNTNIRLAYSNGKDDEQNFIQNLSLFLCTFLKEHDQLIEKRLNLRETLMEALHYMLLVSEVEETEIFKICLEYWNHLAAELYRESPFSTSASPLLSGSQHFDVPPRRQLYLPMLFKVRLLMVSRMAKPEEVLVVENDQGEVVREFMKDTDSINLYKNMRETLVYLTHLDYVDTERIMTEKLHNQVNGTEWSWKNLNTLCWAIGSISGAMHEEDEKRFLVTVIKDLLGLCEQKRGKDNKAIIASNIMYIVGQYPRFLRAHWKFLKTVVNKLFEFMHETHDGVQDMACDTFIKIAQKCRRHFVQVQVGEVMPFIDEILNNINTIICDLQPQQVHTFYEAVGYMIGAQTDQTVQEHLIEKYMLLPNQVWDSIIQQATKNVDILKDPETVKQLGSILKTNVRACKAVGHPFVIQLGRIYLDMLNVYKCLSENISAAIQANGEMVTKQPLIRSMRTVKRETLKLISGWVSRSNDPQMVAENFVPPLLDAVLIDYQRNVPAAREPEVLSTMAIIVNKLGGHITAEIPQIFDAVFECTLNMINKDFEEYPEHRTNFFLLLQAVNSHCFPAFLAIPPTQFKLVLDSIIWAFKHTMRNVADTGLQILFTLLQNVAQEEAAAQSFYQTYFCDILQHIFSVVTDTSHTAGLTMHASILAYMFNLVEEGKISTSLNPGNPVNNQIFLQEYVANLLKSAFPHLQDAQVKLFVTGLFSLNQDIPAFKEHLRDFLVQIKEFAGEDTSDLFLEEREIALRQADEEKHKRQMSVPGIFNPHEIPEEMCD

Row | Structure (SMILES) | IC50 [3] | IC50 [1, 11] | IC50 [4] | IC50 [2, 12] | IC50 [5, 13] | IC50 [6, 14] | further results
1 | C/C=C/[C@@H]1O[C@H]([C@@H](N)/C=C/C=C(\C)C[C@@H](C)/C=C(C)\C=C\[C@H](O)CC(N)CC(=O)OC)C[C@@H](O)[C@@H]1C (stereo partly shown) [Compound 19] | – | – | – | – | – | – | IC50 [1, 8]: 1320 nM; IC50 [1, 9]: 1320 nM; IC50 [2, 10]: 165 nM
2 | C/C=C/[C@@H]1O[C@H]([C@H](N)/C=C/C=C(\C)C[C@@H](C)/C=C(C)\C=C\[C@H]2CC=CC(=O)O2)C[C@@H](O)[C@@H]1C [Compound 16, 16R-aminoratjadone] | 2.7 nM | 4.61 nM | 0.61 nM | 0.39 nM | 0.26 nM | 0.31 nM | –
3 | C#CCCOC(=O)N[C@@H](/C=C/C=C(\C)C[C@@H](C)/C=C(C)\C=C\[C@H]1CC=CC(=O)O1)[C@@H]1C[C@@H](O)[C@H](C)[C@H](/C=C/C)O1 [Compound 22] | 12 nM | – | 1.2 nM | 1.23 nM | 0.62 nM | 2.45 nM | –
4 | C/C=C/[C@@H]1O[C@H]([C@H](O)/C=C/C=C(\C)C[C@@H](C)/C=C(C)\C=C\[C@H]2CC=CC(=O)O2)CC(N)[C@@H]1C (stereo partly shown) [Compound 33, 19-aminoratjadone] | 70 nM | – | 1.4 nM | 6.67 nM | 2.1 nM | 4.39 nM | –
5 | C#CCNC1C[C@@H]([C@H](O)/C=C/C=C(\C)C[C@@H](C)/C=C(C)\C=C\[C@H]2CC=CC(=O)O2)O[C@@H](/C=C/C)[C@H]1C (stereo partly shown) [Compound 35, N-Propargyl-19-aminoratjadone] | 18.3 nM | – | 2.63 nM | 1.23 nM | 1.31 nM | 1.12 nM | –
6 | C#CCCC(=O)N[C@H](/C=C/C=C(\C)C[C@@H](C)/C=C(C)\C=C\[C@H]1CC=CC(=O)O1)[C@@H]1C[C@@H](O)[C@H](C)[C@H](/C=C/C)O1 [Compound 20] | 23.2 nM | – | 0.44 nM | 1.05 nM | 0.4 nM | 0.58 nM | –
7 | C/C=C/[C@@H]1O[C@H](C(=O)/C=C/C=C(\C)C[C@@H](C)/C=C(C)\C=C\[C@H]2CC=CC(=O)O2)CC(=O)[C@@H]1C [Compound 15, 16,19-dioxoratjadone] | 17.5 nM | 24.3 nM | 1.59 nM | 3.98 nM | 2.87 nM | 9.72 nM | –
8 | C#CCCOC(=O)N[C@H](/C=C/C=C(\C)C[C@@H](C)/C=C(C)\C=C\[C@H]1CC=CC(=O)O1)[C@@H]1C[C@@H](O)[C@H](C)[C@H](/C=C/C)O1 [Compound 21] | 46.1 nM | 4.5 nM | 0.45 nM | 0.47 nM | 0.27 nM | 1.25 nM | –
9 | C/C=C/[C@@H]1O[C@H]([C@H](N)/C=C/C=C(\C)C[C@@H](C)/C=C(C)\C=C\[C@H](O)CC(N)CC(=O)OC)C[C@@H](O)[C@@H]1C (stereo partly shown) [Compound 18] | – | – | – | – | – | – | IC50 [1, 8]: 3310 nM; IC50 [1, 9]: 3310 nM; IC50 [2, 10]: 116 nM
10 | CC=CC1OC(C(C=CC=C(C)CC(C)C=C(C)C=CC2CC=CC(=O)O2)NC(=O)OCc2ccc(NC(=O)C(CCCNC(N)=O)NC(=O)C(NC(=O)OCC3C4CCC#CCCC43)C(C)C)cc2)CC(O)C1C (stereo not drawn) [Compound 25, BCN-O(CO)HN-Val-Cit-pABO(CO)-16R-Aminoratjadone] | 246 nM and 346 nM | – | 34.7 nM | 25.1 nM | 20.2 nM | 39.5 nM | IC50 ([2]; read-out: Antiproliferative activity IC50, KB-3.1 human cervix carcinoma): 25.1 nM; IC50 ([5]; read-out: Antiproliferative activity IC50, MCF-7 human breast carcinoma): 20.2 nM; IC50 ([6]; read-out: Antiproliferative activity IC50, A-549 human lung carcinoma): 39.5 nM
11 | C/C=C/[C@@H]1O[C@H]([C@H](O)/C=C/C=C(\C)C[C@@H](C)/C=C(C)\C=C\[C@H]2CC=CC(=O)O2)CC(=O)[C@@H]1C [Compound 14, 19-oxoratjadone] | 13.3 nM | 1.15 nM | 0.16 nM | 0.36 nM | 0.48 nM | 0.1 nM | –
12 | C/C=C/[C@@H]1O[C@H]([C@@H](/C=C/C=C(\C)C[C@@H](C)/C=C(C)\C=C\[C@H]2CC=CC(=O)O2)NC(=O)CCSSc2ccccn2)C[C@@H](O)[C@@H]1C [Compound 31, 2-PySS(CH2)2(CO)-16R-Aminoratjadone] | 44.1 nM | – | 24.6 nM | 8.8 nM | 26 nM | 30.6 nM | –
13 | C/C=C/[C@@H]1O[C@H]([C@@H](/C=C/C=C(\C)C[C@@H](C)/C=C(C)\C=C\[C@H]2CC=CC(=O)O2)NC(=O)OCc2ccc(NC(=O)[C@H](CCCNC(N)=O)NC(=O)[C@@H](NC(=O)OCC3C4CCc5nnn(CCC[C@H](NC(=O)[C@@H](CC(=O)O)NC(=O)[C@@H](CC(=O)O)NC(=O)[C@H](CCCn6nnc7c6CCC6C(CC7)C6COC(=O)N[C@H](C(=O)N[C@@H](CCCNC(N)=O)C(=O)Nc6ccc(COC(=O)N[C@H](/C=C/C=C(\C)C[C@@H](C)/C=C(C)\C=C\[C@H]7CC=CC(=O)O7)[C@@H]7C[C@@H](O)[C@H](C)[C@H](/C=C/C)O7)cc6)C(C)C)NC(=O)[C@@H](CC(=O)O)NC(=O)[C@@H](CC(=O)O)NC(=O)[C@H](CCCn6nnc7c6CCC6C(CC7)C6COC(=O)N[C@H](C(=O)N[C@@H](CCCNC(N)=O)C(=O)Nc6ccc(COC(=O)N[C@H](/C=C/C=C(\C)C[C@@H](C)/C=C(C)\C=C\[C@H]7CC=CC(=O)O7)[C@@H]7C[C@@H](O)[C@H](C)[C@H](/C=C/C)O7)cc6)C(C)C)NC(=O)[C@@H](CC(=O)O)NC(=O)[C@@H](CC(=O)O)NC(=O)CC[C@H](NC(=O)c6ccc(NCc7cnc8nc(N)nc(O)c8n7)cc6)C(=O)O)C(=O)O)c5CCC43)C(C)C)cc2)C[C@@H](O)[C@@H]1C (stereo partly drawn) [FA-11-(Val-Cit-pABA-16R-aminoratjadone)3] | – | – | – | – | – | – | IC50 [7]: 45 nM
14 | C/C=C/[C@@H]1O[C@H](C(=O)/C=C/C=C(\C)C[C@@H](C)/C=C(C)\C=C\[C@H]2CC=CC(=O)O2)C[C@@H](O)[C@@H]1C [Compound 13, 16-oxoratjadone] | 52.5 nM | 12.6 nM | 0.24 nM | 2.57 nM | 0.22 nM | 1.76 nM | IC50 [1, 15]: 12.6 nM
15 | C/C=C/[C@@H]1O[C@H]([C@@H](/C=C/C=C(\C)C[C@@H](C)/C=C(C)\C=C\[C@H]2CC=CC(=O)O2)NC(=O)OCc2ccc(NC(=O)[C@H](CCCNC(N)=O)NC(=O)[C@@H](NC(=O)OCC3C4CCc5nnn(-c6ccc(C(=O)NCCCC[C@H](NC(=O)CC[C@H](NC(=O)CC[C@H](NC(=O)c7ccc(NCc8cnc9nc(N)[nH]c(=O)c9n8)cc7)C(=O)O)C(=O)O)C(=O)OC)cc6)c5CCC43)C(C)C)cc2)C[C@@H](O)[C@@H]1C (stereo partly drawn) [FA-1-Val-Cit-pABA-16R-aminoratjadone] | – | – | – | – | – | – | IC50 ([7]; listed as FA-1-Val-Cit-pABA-16R-Aminoratjadone): 169 nM; IC50 [7]: 169 nM
16 | C/C=C/[C@@H]1O[C@H]([C@@H](N)/C=C/C=C(\C)C[C@@H](C)/C=C(C)\C=C\[C@H]2CC=CC(=O)O2)C[C@@H](O)[C@@H]1C [Compound 17, 16S-aminoratjadone] | 2.8 nM | 28.4 nM | 0.81 nM | 1.59 nM | 0.36 nM | 1.31 nM | IC50 [1, 15]: 28.4 nM
17 | C/C=C/[C@@H]1O[C@H]([C@@H](/C=C/C=C(\C)C[C@@H](C)/C=C(C)\C=C\[C@H]2CC=CC(=O)O2)NC(=O)OCCc2cn(-c3ccc(C(=O)NCCCC[C@H](NC(=O)CC[C@H](NC(=O)CC[C@H](NC(=O)c4ccc(NCc5cnc6nc(N)nc(O)c6n5)cc4)C(=O)O)C(=O)O)C(=O)O)cc3)nn2)C[C@@H](O)[C@@H]1C [FA-6-L-16R-aminoratjadone] | – | – | – | – | – | – | IC50 ([7]; listed as FA-6-L-16R-Aminoratjadone): 150 nM; IC50 [7]: 150 nM
